Reference: patent publication US20100190788A1, “Amide derivatives as kinase inhitors” (priority 2005, published 2010)

These compounds were tested against T1, human ROCKα/ROCKII mix (Homo sapiens, UniProt O75116) (assay: ROCK inhibition, fluorescence polarization (FP) assay with ROCK IMAP Kit). Details: Table 1, compounds of Formula IV20.
T1 construct: purchased Upstate Biotechnology 14-451
Format: biochemical
Protocol: The compounds were tested for inhibition of human ROCKα/ROCKII mix.
The inhibition assays were performed with a fluorescence polarization (FP) assay using the commercially available ROCK IMAP Kit from Molecular Devices (Product ID. No. R8093), essentially in accordance with the protocol supplied by the manufacturer. […] The enzyme mix ROCKα/ROCKII was obtained from Upstate Biotechnology (Product ID No 14-451).
In summary, all compounds were screened in the wells of a 384 well plate for enzymatic inhibition with concentrations varying from 100 μM to 0.3 nM using a stepwise 3 (or 2)-fold dilution.
To perform the assay, 1 μl of a solution of the compound to be tested in DMSO (at each concentration) was added to 2 μl of a solution of the enzyme in 10 mM Tris-HCl, 10 mM MgCl2, 0.1% BSA, 0.05% NaN3, pH 7.2. The final concentration of the enzyme was 2.6 nM.
After incubating for 30 minutes at RT, 2 μl of a mixture of ATP and the protein substrate in 10 mM Tris-HCl, 10 mM MgCl2, 0.1% BSA, 0.05% NaN3, pH 7.2 was added. The final concentration of the ATP was 10 μM and final concentration of protein substrate was 0.2 μM.
After incubating for 60 minutes at RT, 12 μl of the IMAP Binding Solution (mix of the IMAP Binding Buffer A (1×) and the IMAP Binding Reagent (from the ROCK IMAP kit)) was added.
The mixture thus obtained (total volume: 17 μl) was incubated for 60 minutes at RT, upon which the fluorescence polarization was measured using an automated plate reader (Perkin Elmer, Model Envision 2100-0010 HTS) with FP filters: excitation filter FITC FP 480 and emission filters FITC FP P-pol 535 and FITC FP S-pol 535 (Perkin-Elmer). The results were fitted to a curve using the XL-Fit algorithm and IC50 values were calculated for each fitted curve, again using the XL-Fit algorithm.

T1 sequence (O75116 whole entry): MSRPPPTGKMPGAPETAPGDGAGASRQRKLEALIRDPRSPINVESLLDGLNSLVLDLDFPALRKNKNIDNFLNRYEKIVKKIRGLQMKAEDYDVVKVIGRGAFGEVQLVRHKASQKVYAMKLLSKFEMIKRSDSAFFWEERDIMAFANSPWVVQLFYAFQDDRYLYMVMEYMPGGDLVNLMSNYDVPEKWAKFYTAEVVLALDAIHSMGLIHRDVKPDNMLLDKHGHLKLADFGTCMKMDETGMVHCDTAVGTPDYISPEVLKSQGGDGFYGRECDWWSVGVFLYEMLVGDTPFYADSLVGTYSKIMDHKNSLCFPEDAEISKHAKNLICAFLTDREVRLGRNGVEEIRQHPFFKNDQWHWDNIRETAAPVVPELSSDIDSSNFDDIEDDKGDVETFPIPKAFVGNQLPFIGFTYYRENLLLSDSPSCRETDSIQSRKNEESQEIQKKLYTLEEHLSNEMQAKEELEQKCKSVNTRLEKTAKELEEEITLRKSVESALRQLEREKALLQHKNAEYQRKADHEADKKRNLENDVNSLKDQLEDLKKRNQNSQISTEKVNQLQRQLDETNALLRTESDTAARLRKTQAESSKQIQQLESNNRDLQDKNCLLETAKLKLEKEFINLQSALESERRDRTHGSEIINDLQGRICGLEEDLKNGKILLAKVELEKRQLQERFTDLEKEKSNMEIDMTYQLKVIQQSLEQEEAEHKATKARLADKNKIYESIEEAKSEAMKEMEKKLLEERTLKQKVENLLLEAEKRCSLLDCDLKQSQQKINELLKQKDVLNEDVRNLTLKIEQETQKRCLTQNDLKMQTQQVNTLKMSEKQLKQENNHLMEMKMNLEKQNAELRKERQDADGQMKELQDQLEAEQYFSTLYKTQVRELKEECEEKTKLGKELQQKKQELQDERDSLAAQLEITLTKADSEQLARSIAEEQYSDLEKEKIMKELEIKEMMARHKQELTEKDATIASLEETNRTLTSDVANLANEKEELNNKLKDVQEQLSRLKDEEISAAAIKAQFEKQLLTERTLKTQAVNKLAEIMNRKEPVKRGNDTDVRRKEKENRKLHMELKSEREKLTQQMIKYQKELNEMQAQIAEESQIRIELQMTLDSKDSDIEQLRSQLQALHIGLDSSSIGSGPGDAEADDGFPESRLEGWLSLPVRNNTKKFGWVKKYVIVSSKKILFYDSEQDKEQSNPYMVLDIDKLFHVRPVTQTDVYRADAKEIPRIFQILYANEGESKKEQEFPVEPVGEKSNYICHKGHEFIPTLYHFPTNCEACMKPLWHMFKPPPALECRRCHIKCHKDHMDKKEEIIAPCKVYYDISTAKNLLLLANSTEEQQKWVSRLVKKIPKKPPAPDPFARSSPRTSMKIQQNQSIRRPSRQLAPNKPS

IC50 [µM]	Structure (SMILES)
< 0.5	NC(C(=O)N1CCCC1c1cccc(F)c1)c1ccc(C(=O)Nc2ccncc2)cc1 (centres unmarked) [Compound 83, 4-{1-amino-2-[2-(3-fluoro-phenyl)-pyrrolidin-1-yl]-2-oxo-ethyl}-N-pyridin-4-yl-benzamide]

Same assay, conditions: Table 2, compounds of Formula V20

IC50 [µM]	Structure (SMILES)
0.5 to 5	NC(CNS(=O)(=O)c1ccc(Oc2ccccc2)cc1)c1ccc(C(=O)Nc2ccncc2)cc1 (centres unmarked) [Compound 74, 4-[1-amino-2-(4-phenoxy-benzenesulfonylamino)-ethyl]-N-pyridin-4-yl-benzamide]
0.5 to 5	NC(CNS(=O)(=O)c1cccc(-c2ccccc2)c1)c1ccc(C(=O)Nc2ccncc2)cc1 (centres unmarked) [Compound 75]
0.5 to 5	NC(CNS(=O)(=O)c1ccc(-c2ccccc2)cc1)c1ccc(C(=O)Nc2ccncc2)cc1 (centres unmarked) [Compound 76]
< 0.5	NC(CNS(=O)(=O)c1cccc2ccccc12)c1ccc(C(=O)Nc2ccncc2)cc1 (centres unmarked) [Compound 77, 4-[1-amino-2-(naphthalene-1-sulfonylamino)-ethyl]-N-pyridin-4-yl-benzamide]
< 0.5	NC(CNS(=O)(=O)c1cccs1)c1ccc(C(=O)Nc2ccncc2)cc1 (centres unmarked) [Compound 78, 4-[1-amino-2-(thiophene-2-sulfonylamino)-ethyl]-N-pyridin-4-yl-benzamide]
< 0.5	Cc1noc(C)c1S(=O)(=O)NCC(N)c1ccc(C(=O)Nc2ccncc2)cc1 (centres unmarked) [Compound 79, 4-[1-amino-2-(3,5-dimethyl-isoxazole-4-sulfonylamino)-ethyl]-N-pyridin-4-yl-benzamide]
0.5 to 5	Cc1nn(C)c(Cl)c1S(=O)(=O)NCC(N)c1ccc(C(=O)Nc2ccncc2)cc1 (centres unmarked) [Compound 80, 4-[1-amino-2-(5-chloro-1,3-dimethyl-1H-pyrazole-4-sulfonylamino)-ethyl]-N-pyridin-4-yl-benzamide]
< 0.5	NC(CNS(=O)(=O)c1cccc2nonc12)c1ccc(C(=O)Nc2ccncc2)cc1 (centres unmarked) [Compound 81, 4-[1-amino-2-(benzo[1,2,5]-oxadiazole-4-sulfonylamino)-ethyl]-N-pyridin-4-yl-benzamide]
< 0.5	NC(CNS(=O)(=O)c1cccc2nsnc12)c1ccc(C(=O)Nc2ccncc2)cc1 (centres unmarked) [Compound 82, 4-[1-amino-2-(benzo[1,2,5]-thiadiazole-4-sulfonylamino)-ethyl]-N-pyridin-4-yl-benzamide]

Same assay, conditions: Table 3, compounds of Formula III20

IC50 [µM]	Structure (SMILES)
< 0.5	NC(CC(=O)N1CCCC1c1ccccc1)c1ccc(C(=O)Nc2ccncc2)cc1 (centres unmarked) [Compound 84, 4-[1-amino-3-oxo-3-(2-phenyl-pyrrolidin-1-yl)-propyl]-N-pyridin-4-yl-benzamide]
< 0.5	NC(CC(=O)N1CCCC1c1cccc(Cl)c1)c1ccc(C(=O)Nc2ccncc2)cc1 (centres unmarked) [Compound 85, 4-{1-amino-3-[2-(3-chloro-phenyl)-pyrrolidin-1-yl]-3-oxo-propyl}-N-pyridin-4-yl-benzamide]
< 0.5	NC(CC(=O)N1CCCC1c1ccc(F)cc1)c1ccc(C(=O)Nc2ccncc2)cc1 (centres unmarked) [Compound 86, 4-{1-amino-3-[2-(4-fluoro-phenyl)-pyrrolidin-1-yl]-3-oxo-propyl}-N-pyridin-4-yl-benzamide]
< 0.5	NC(CC(=O)N1CCCC1c1cccc(F)c1)c1ccc(C(=O)Nc2ccncc2)cc1 (centres unmarked) [Compound 87, 4-{1-amino-3-[2-(3-fluoro-phenyl)-pyrrolidin-1-yl]-3-oxo-propyl}-N-pyridin-4-yl-benzamide]
< 0.5	NC(CC(=O)N1CCCC1c1cc(F)ccc1F)c1ccc(C(=O)Nc2ccncc2)cc1 (centres unmarked) [Compound 88, 4-{1-amino-3-[2-(2,5-difluoro-phenyl)-pyrrolidin-1-yl]-3-oxo-propyl}-N-pyridin-4-yl-benzamide]
< 0.5	NC(CC(=O)N1CCCC1c1ccc(F)cc1F)c1ccc(C(=O)Nc2ccncc2)cc1 (centres unmarked) [Compound 89, 4-{1-amino-3-[2-(2,4-difluoro-phenyl)-pyrrolidin-1-yl]-3-oxo-propyl}-N-pyridin-4-yl-benzamide]
< 0.5	NC(CC(=O)N1CCCC1c1ccc(Cl)cc1)c1ccc(C(=O)Nc2ccncc2)cc1 (centres unmarked) [Compound 90, 4-{1-amino-3-[2-(4-chloro-phenyl)-pyrrolidin-1-yl]-3-oxo-propyl}-N-pyridin-4-yl-benzamide]
< 0.5	NC(CC(=O)N1CCCC1c1ccc(Cl)c(Cl)c1)c1ccc(C(=O)Nc2ccncc2)cc1 (centres unmarked) [Compound 91, 4-{1-amino-3-[2-(3,4-dichloro-phenyl)-pyrrolidin-1-yl]-3-oxo-propyl}-N-pyridin-4-yl-benzamide]
< 0.5	NC(CC(=O)N1CCCCC1c1ccccc1)c1ccc(C(=O)Nc2ccncc2)cc1 (centres unmarked) [Compound 92, 4-[1-amino-3-oxo-3-(2-phenyl-piperidin-1-yl)-propyl]-N-pyridin-4-yl-benzamide]
< 0.5	NC(CC(=O)N1CCCCC1c1cccc2ccccc12)c1ccc(C(=O)Nc2ccncc2)cc1 (centres unmarked) [Compound 93, 4-[1-amino-3-(2-naphthalen-1-yl-piperidin-1-yl)-3-oxo-propyl]-N-pyridin-4-yl-benzamide]
< 0.5	NC(CC(=O)N1CCCCC1c1ccc(Cl)cc1)c1ccc(C(=O)Nc2ccncc2)cc1 (centres unmarked) [Compound 94, 4-{1-amino-3-[2-(4-chloro-phenyl)-piperidin-1-yl]-3-oxo-propyl}-N-pyridin-4-yl-benzamide]
< 0.5	NC(CC(=O)N1CCCCC1c1cc(Cl)ccc1Cl)c1ccc(C(=O)Nc2ccncc2)cc1 (centres unmarked) [Compound 95, 4-{1-amino-3-[2-(2,5-dichloro-phenyl)-piperidin-1-yl]-3-oxo-propyl}-N-pyridin-4-yl-benzamide]
< 0.5	COc1ccc(Cl)cc1C1CCCCN1C(=O)CC(N)c1ccc(C(=O)Nc2ccncc2)cc1 (centres unmarked) [Compound 96, 4-{1-amino-3-[2-(5-chloro-2-methoxy-phenyl)-piperidin-1-yl]-3-oxo-propyl}-N-pyridin-4-yl-benzamide]
< 0.5	NC(CC(=O)N1CCCCC1c1ccc(F)cc1)c1ccc(C(=O)Nc2ccncc2)cc1 (centres unmarked) [Compound 97, 4-{1-amino-3-[2-(4-fluoro-phenyl)-piperidin-1-yl]-3-oxo-propyl}-N-pyridin-4-yl-benzamide]
< 0.5	COc1cccc(C2CCCCN2C(=O)CC(N)c2ccc(C(=O)Nc3ccncc3)cc2)c1 (centres unmarked) [Compound 98, 4-{1-amino-3-[2-(3-methoxy-phenyl)-piperidin-1-yl]-3-oxo-propyl}-N-pyridin-4-yl-benzamide]
< 0.5	NC(CC(=O)N1CCOCC1c1ccccc1)c1ccc(C(=O)Nc2ccncc2)cc1 (centres unmarked) [Compound 99, 4-[1-Amino-3-oxo-3-(3-phenyl-morpholin-4-yl)-propyl]-N-pyridin-4-yl-benzamide]
< 0.5	NC(CC(=O)N1CCOCC1c1ccc(Cl)cc1)c1ccc(C(=O)Nc2ccncc2)cc1 (centres unmarked) [Compound 100, 4-{1-amino-3-[3-(4-chloro-phenyl)-morpholin-4-yl]-3-oxo-propyl}-N-pyridin-4-yl-benzamide]
< 0.5	NC(CC(=O)N1CCOCC1c1ccc(F)cc1)c1ccc(C(=O)Nc2ccncc2)cc1 (centres unmarked) [Compound 101, 4-{1-amino-3-[3-(4-fluoro-phenyl)-morpholin-4-yl]-3-oxo-propyl}-N-pyridin-4-yl-benzamide]
< 0.5	NC(CC(=O)N1CCc2c(Cl)cccc2C1)c1ccc(C(=O)Nc2ccncc2)cc1 (centres unmarked) [Compound 102, 4-[1-amino-3-(5-chloro-3,4-dihydro-1H-isoquinolin-2-yl)-3-oxo-propyl]-N-pyridin-4-yl-benzamide]
< 0.5	NC(CC(=O)N1CCc2ccc(Cl)cc2C1)c1ccc(C(=O)Nc2ccncc2)cc1 (centres unmarked) [Compound 103, 4[1-amino-3-(7-chloro-3,4-dihydro-1H-isoquinolin-2-yl)-3-oxo-propyl]-N-pyridin-4-yl-benzamide]
< 0.5	NC(CC(=O)N1CCc2ccc(F)cc2C1)c1ccc(C(=O)Nc2ccncc2)cc1 (centres unmarked) [Compound 104, 4-[1-amino-3-(7-fluoro-3,4-dihydro-1H-isoquinolin-2-yl)-3-oxo-propyl]-N-pyridin-4-yl-benzamide]
< 0.5	NC(CC(=O)N1Cc2ccccc2C1)c1ccc(C(=O)Nc2ccncc2)cc1 (centres unmarked) [Compound 105, 4-[1-amino-3-(1,3-dihydro-isoindol-2-yl)-3-oxo-propyl]-N-pyridin-4-yl-benzamide]
< 0.5	NC(CC(=O)N1CCSC1)c1ccc(C(=O)Nc2ccncc2)cc1 (centres unmarked) [Compound 106, 4-(1-amino-3-oxo-3-thiazolidin-3-yl-propyl)-N-pyridin-4-yl-benzamide]
< 0.5	NC(CC(=O)N1CCCCC1)c1ccc(C(=O)Nc2ccncc2)cc1 (centres unmarked) [Compound 107, 4-(1-amino-3-oxo-3-piperidin-1-yl-propyl)-N-pyridin-4-yl-benzamide]
< 0.5	CC1CC(C)CN(C(=O)CC(N)c2ccc(C(=O)Nc3ccncc3)cc2)C1 (centres unmarked) [Compound 108, 4-[1-amino-3-(3,5-dimethyl-piperidin-1-yl)-3-oxo-propyl]-N-pyridin-4-yl-benzamide]
